We go through three molecules from publication PMC3358459 (Journal of Pharmaceutical and Biomedical Analysis, 2012).

Series [1] in a line: Stability of R-. It counts as in vitro ADME, human. To be noted: for Remained concentration: human plasma with 20 mM glutathione, added concentration 3.585 μg/mL, n=3, Mean±S.D.
The conditions of series [2]: cited from earlier work.

For the molecule `Cc1cc2c(C(C)C)c(O)c(O)c(C=O)c2c(O)c1-c1c(C)cc2c(C(C)C)c(O)c(O)c(C=O)c2c1O` [R-(-)-gossypol], under “acetonitrile/water (80:20), 24hr at 4°C”, the “Stability in mobile phase” value is “good stability”. The “Effect of antioxidants on stability in plasma” value in series [1] (5 μg/mL in plasma with 20 mM reduced glutathione and 1% ascorbic acid, 4°C) is on record as “can improve the stability”. Further, the Remained concentration in series [1] (-80°C, 1 month) came out at 111.8±5.6%; in series [1] (on ice, 4hr), 103.8±6.1%; in series [1] (three freeze-thaw cycles), 86.9±1.1%. Moreover, in series [1] (plasma, room temperature, over 24hr, compared to freshly prepared samples), the Degraded in plasma result was “more than 60%”.

As to `Cc1cc2c(C(C)C)c(O)c(O)c(C=O)c2c(O)c1-c1c(C)cc2c(C(C)C)c(O)c(O)c(C=O)c2c1O` [gossypol], the “Stability of quality control plasma samples” value in series [1] (plasma with 20 mM glutathione, -70°C for 1 month) was “stable”; in series [1] (plasma with 20 mM glutathione, on ice for 4 hr) it was “stable”. In addition, the Freeze-thaw stability result in series [1] (plasma with 20 mM glutathione, after 3 cycles, lower concentration) is listed as “significant degradation”. Also, the Stability in acetonitrile result in series [2] (acetonitrile) was “stable”. The Stability in methanol result in series [2] (methanol, even at 5°C) is given as “decompose”. For the same molecule, the Stability in solvents entry in series [2] (water, methanol, ethanol and alcoholic solvents) was “unstable”.

Take R-(-)-gossypol acetic acid: the “Time stock solution was stable” value (1mg/mL in acetonitrile, -70°C) came out at 3 months.
